# Measurements taken from PubChem BioAssay AID1963843 (Molecular Pharmacology Branch, DTP, NCI, 2024).
# System: 616215-338-R-J1-PDC complex spheroid viability
# Experiment: Anticancer human tumor 616215-338-R-J1-PDC patient-derived colon adenocarcinoma cell line growth inhibition [POLQ]
# Conditions: for IC50: curve of first compound; for viability, T/C: stronger effect = lower value
# In short: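 Three-cell-type spheroids modelling solid tumor plus stroma served as the readout system; POL inhibitors were tested individually and in combination, concentration ranges set by clinical Cmax where known.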
# [1] = second compound 0.0316 µM, first compound 0.0316 µM
# [2] = second compound 0.0316 µM, first compound 0.1 µM
# [3] = second compound 0.0316 µM, first compound 0.316 µM
# [4] = second compound 0.0316 µM, first compound 1 µM
# [5] = second compound 0.0316 µM, first compound 3.16 µM
# [6] = second compound 0.0316 µM, first compound 10 µM
# [7] = second compound 0.1 µM, first compound 0.0316 µM
# [8] = second compound 0.1 µM, first compound 0.1 µM
# [9] = second compound 0.1 µM, first compound 0.316 µM
# [10] = second compound 0.1 µM, first compound 1 µM
# [11] = second compound 0.1 µM, first compound 3.16 µM
# [12] = second compound 0.1 µM, first compound 10 µM
# [13] = second compound 0.316 µM, first compound 0.0316 µM
# [14] = second compound 0.316 µM, first compound 0.1 µM
# [15] = second compound 0.316 µM, first compound 0.316 µM
# [16] = second compound 0.316 µM, first compound 1 µM
# [17] = second compound 0.316 µM, first compound 3.16 µM
# [18] = second compound 0.316 µM, first compound 10 µM
# [19] = second compound 1 µM, first compound 0.0316 µM
# [20] = second compound 1 µM, first compound 0.1 µM
# [21] = second compound 1 µM, first compound 0.316 µM
# [22] = second compound 1 µM, first compound 1 µM
# [23] = second compound 1 µM, first compound 3.16 µM
# [24] = second compound 1 µM, first compound 10 µM
# [25] = second compound 3.16 µM, first compound 0.0316 µM
# [26] = second compound 3.16 µM, first compound 0.1 µM
# [27] = second compound 3.16 µM, first compound 0.316 µM
# [28] = second compound 3.16 µM, first compound 1 µM
# [29] = second compound 3.16 µM, first compound 3.16 µM
# [30] = second compound 3.16 µM, first compound 10 µM
# [31] = second compound 10 µM, first compound 0.0316 µM
# [32] = second compound 10 µM, first compound 0.1 µM
# [33] = second compound 10 µM, first compound 0.316 µM
# [34] = second compound 10 µM, first compound 1 µM
# [35] = second compound 10 µM, first compound 3.16 µM
# [36] = second compound 10 µM, first compound 10 µM
# [37] = second compound 0.0316 µM, first compound 0.00316 µM
# [38] = second compound 0.0316 µM, first compound 0.01 µM
# [39] = second compound 0.1 µM, first compound 0.00316 µM
# [40] = second compound 0.1 µM, first compound 0.01 µM
# [41] = second compound 0.316 µM, first compound 0.00316 µM
# [42] = second compound 0.316 µM, first compound 0.01 µM
# [43] = second compound 1 µM, first compound 0.00316 µM
# [44] = second compound 1 µM, first compound 0.01 µM
# [45] = second compound 3.16 µM, first compound 0.00316 µM
# [46] = second compound 3.16 µM, first compound 0.01 µM
# [47] = second compound 10 µM, first compound 0.00316 µM
# [48] = second compound 10 µM, first compound 0.01 µM
# 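Further: spheroids exposed to compounds for one week before readout.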
# 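Wherever viability, T/C is given: percent viability relative to DMSO vehicle wells taken as 100%.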
smiles,measurement,setting,value
CNCc1ccc(-c2[nH]c3cc(F)cc4c3c2CCNC4=O)cc1 + Cc1cccc(N(C)C(=O)C2C(O)CCN2c2nc(C)cc(C(F)(F)F)c2C#N)c1,IC50,second compound 0.0316 µM,> 10000 nM
same,IC50,second compound 0.1 µM,> 10000 nM
same,IC50,second compound 0.316 µM,> 10000 nM
same,IC50,second compound 1 µM,> 10000 nM
same,IC50,second compound 3.16 µM,> 10000 nM
same,IC50,second compound 10 µM,> 10000 nM
same,"viability, T/C",[1],96.9%
same,"viability, T/C",[2],99.2%
same,"viability, T/C",[3],105%
same,"viability, T/C",[4],105%
same,"viability, T/C",[5],106%
same,"viability, T/C",[6],86.2%
same,"viability, T/C",[7],101%
same,"viability, T/C",[8],97.7%
same,"viability, T/C",[9],95.5%
same,"viability, T/C",[10],101%
same,"viability, T/C",[11],108%
same,"viability, T/C",[12],73.8%
same,"viability, T/C",[13],99.8%
same,"viability, T/C",[14],103%
same,"viability, T/C",[15],96.6%
same,"viability, T/C",[16],105%
same,"viability, T/C",[17],105%
same,"viability, T/C",[18],72.8%
same,"viability, T/C",[19],107%
same,"viability, T/C",[20],108%
same,"viability, T/C",[21],102%
same,"viability, T/C",[22],103%
same,"viability, T/C",[23],112%
same,"viability, T/C",[24],70%
same,"viability, T/C",[25],111%
same,"viability, T/C",[26],109%
same,"viability, T/C",[27],111%
same,"viability, T/C",[28],104%
same,"viability, T/C",[29],102%
same,"viability, T/C",[30],65.4%
same,"viability, T/C",[31],122%
same,"viability, T/C",[32],105%
same,"viability, T/C",[33],109%
same,"viability, T/C",[34],107%
same,"viability, T/C",[35],108%
same,"viability, T/C",[36],74.7%
COc1cccc(OCCCN)c1-c1cc(Nc2cnc(C#N)cn2)n[nH]1 + Cc1cccc(N(C)C(=O)C2C(O)CCN2c2nc(C)cc(C(F)(F)F)c2C#N)c1,IC50,second compound 0.0316 µM,92.9 nM
same,IC50,second compound 0.1 µM,62.2 nM
same,IC50,second compound 0.316 µM,58.3 nM
same,IC50,second compound 1 µM,53.8 nM
same,IC50,second compound 3.16 µM,56.1 nM
same,IC50,second compound 10 µM,37.4 nM
same,"viability, T/C",[37],94.8%
same,"viability, T/C",[38],89.4%
same,"viability, T/C",[1],73.1%
same,"viability, T/C",[2],47.9%
same,"viability, T/C",[3],38.9%
same,"viability, T/C",[4],35.3%
same,"viability, T/C",[39],107%
same,"viability, T/C",[40],97.8%
same,"viability, T/C",[7],57.3%
same,"viability, T/C",[8],47.8%
same,"viability, T/C",[9],34.3%
same,"viability, T/C",[10],29.9%
same,"viability, T/C",[41],99%
same,"viability, T/C",[42],86.1%
same,"viability, T/C",[13],61.7%
same,"viability, T/C",[14],38.3%
same,"viability, T/C",[15],37%
same,"viability, T/C",[16],29.3%
same,"viability, T/C",[43],108%
same,"viability, T/C",[44],89.9%
same,"viability, T/C",[19],56.1%
same,"viability, T/C",[20],41.3%
same,"viability, T/C",[21],35.8%
same,"viability, T/C",[22],26.7%
same,"viability, T/C",[45],86.8%
same,"viability, T/C",[46],82.9%
same,"viability, T/C",[25],60.4%
same,"viability, T/C",[26],38.4%
same,"viability, T/C",[27],43.8%
same,"viability, T/C",[28],29.1%
same,"viability, T/C",[47],104%
same,"viability, T/C",[48],81.3%
same,"viability, T/C",[31],47.5%
same,"viability, T/C",[32],38.3%
same,"viability, T/C",[33],34.7%
same,"viability, T/C",[34],21.2%
Cn1ncnc1[C@H]1c2n[nH]c(=O)c3cc(F)cc(c23)N[C@@H]1c1ccc(F)cc1 + Cc1cccc(N(C)C(=O)C2C(O)CCN2c2nc(C)cc(C(F)(F)F)c2C#N)c1,IC50,second compound 0.0316 µM,> 100 nM
same,IC50,second compound 0.1 µM,> 100 nM
same,IC50,second compound 0.316 µM,> 100 nM
same,IC50,second compound 1 µM,> 100 nM
same,IC50,second compound 3.16 µM,> 100 nM
same,IC50,second compound 10 µM,> 100 nM
same,"viability, T/C","second compound 0.0316 µM, first compound 0.000316 µM",106%
same,"viability, T/C","second compound 0.0316 µM, first compound 0.001 µM",87.5%
same,"viability, T/C",[37],92.1%
same,"viability, T/C",[38],102%
same,"viability, T/C",[1],105%
same,"viability, T/C",[2],99.3%
same,"viability, T/C","second compound 0.1 µM, first compound 0.000316 µM",108%
same,"viability, T/C","second compound 0.1 µM, first compound 0.001 µM",99.5%
same,"viability, T/C",[39],101%
same,"viability, T/C",[40],105%
same,"viability, T/C",[7],108%
same,"viability, T/C",[8],108%
same,"viability, T/C","second compound 0.316 µM, first compound 0.000316 µM",104%
same,"viability, T/C","second compound 0.316 µM, first compound 0.001 µM",104%
same,"viability, T/C",[41],109%
same,"viability, T/C",[42],105%
same,"viability, T/C",[13],110%
same,"viability, T/C",[14],97.3%
same,"viability, T/C","second compound 1 µM, first compound 0.000316 µM",101%
same,"viability, T/C","second compound 1 µM, first compound 0.001 µM",101%
same,"viability, T/C",[43],111%
same,"viability, T/C",[44],106%
same,"viability, T/C",[19],115%
same,"viability, T/C",[20],104%
same,"viability, T/C","second compound 3.16 µM, first compound 0.000316 µM",116%
same,"viability, T/C","second compound 3.16 µM, first compound 0.001 µM",106%
same,"viability, T/C",[45],101%
same,"viability, T/C",[46],109%
same,"viability, T/C",[25],104%
same,"viability, T/C",[26],97.1%
same,"viability, T/C","second compound 10 µM, first compound 0.000316 µM",106%
same,"viability, T/C","second compound 10 µM, first compound 0.001 µM",107%
same,"viability, T/C",[47],111%
same,"viability, T/C",[48],102%
same,"viability, T/C",[31],99.1%
same,"viability, T/C",[32],98.6%
O=C(c1cc(Cc2n[nH]c(=O)c3ccccc23)ccc1F)N1CCN(C(=O)C2CC2)CC1 + Cc1cccc(N(C)C(=O)C2C(O)CCN2c2nc(C)cc(C(F)(F)F)c2C#N)c1,IC50,second compound 0.0316 µM,> 10000 nM
same,IC50,second compound 0.1 µM,> 10000 nM
same,IC50,second compound 0.316 µM,> 10000 nM
same,IC50,second compound 1 µM,> 10000 nM
same,IC50,second compound 3.16 µM,> 10000 nM
same,IC50,second compound 10 µM,> 10000 nM
same,"viability, T/C",[1],105%
same,"viability, T/C",[2],93.8%
same,"viability, T/C",[3],102%
same,"viability, T/C",[4],98.4%
same,"viability, T/C",[5],103%
same,"viability, T/C",[6],87.8%
same,"viability, T/C",[7],103%
same,"viability, T/C",[8],98.4%
same,"viability, T/C",[9],107%
same,"viability, T/C",[10],107%
same,"viability, T/C",[11],99.9%
same,"viability, T/C",[12],94.3%
same,"viability, T/C",[13],95.3%
same,"viability, T/C",[14],102%
same,"viability, T/C",[15],108%
same,"viability, T/C",[16],98.9%
same,"viability, T/C",[17],108%
same,"viability, T/C",[18],89.2%
same,"viability, T/C",[19],111%
same,"viability, T/C",[20],106%
same,"viability, T/C",[21],105%
same,"viability, T/C",[22],101%
same,"viability, T/C",[23],102%
same,"viability, T/C",[24],78%
same,"viability, T/C",[25],103%
same,"viability, T/C",[26],102%
same,"viability, T/C",[27],95.6%
same,"viability, T/C",[28],103%
same,"viability, T/C",[29],97.3%
same,"viability, T/C",[30],88.4%
same,"viability, T/C",[31],113%
same,"viability, T/C",[32],101%
same,"viability, T/C",[33],100%
same,"viability, T/C",[34],104%
same,"viability, T/C",[35],110%
same,"viability, T/C",[36],86.6%
